Data set [1] is described as follows: Oral bioavailability in mice, Method B. The class given is in vivo. The note with it: CD-1 mice; for F: 10 mg/kg; for half-life / Cmax / AUC(0-inf): male, mouse. The method, then: Animals. Male CD-1 mice were used in these studies Animals were randomly assigned to treatment groups and were fasted for 4 h before oral dosing.
Drugs. Test compounds were dissolved in a vehicle consisting of normal saline (compounds 19S and 88R) or a mixture of 5% v/v N-methyl-2-pyrrolidone, 5% v/v Solutol HS-15, and 90% v/v normal saline (compounds 11S, 11R, 114S, and 114R). They were then administered intravenously (iv) or orally (po) at a dose of 10 mg/kg (calculated based on freebase) and at a volume of 5 mL/kg body weight. Compounds were tested as the racemates (indicated by “rac” nomenclature) or pure enantiomers (indicated by “R” or “S” nomenclature).
Sample Collection and Bioanalysis. Blood samples (approximately 60 μL) were collected under light isoflurane anesthesia (Surgivet®) from the retro orbital plexus at 0.08, 0.25, 0.5, 1, 2, 4, 8, and 24 h (4 animals per time point) Immediately after blood collection, plasma was harvested by centrifugation at 4000 rpm for 10 min at 4° C. and samples were stored at −70±10° C. until bioanalysis. Following blood collection, animals were immediately sacrificed, the abdominal vena-cava was cut open, and the whole body was perfused from the heart using 10 mL of normal saline, and brain samples were collected from all animals After isolation, brain samples were rinsed three times in ice-cold normal saline (for 5-10 seconds/rinse using ˜5-10 mL normal saline in disposable petri dish for each rinse) and dried on blotting paper. Brain samples were homogenized using ice-cold phosphate-buffered saline (pH 7.4). Total homogenate volume was three times the tissue weight. All homogenates were stored at −70±10° C. until bioanalysis. For bioanalysis, 25 μL aliquots of plasma/brain study samples or spiked plasma/brain calibration standards were added to individual pre-labeled micro-centrifuge tubes followed by 100 μL of an internal standard solution (glipizide, 500 ng/mL in acetonitrile) except for blanks, where 100 μL of acetonitrile was added. Samples were vortexed for 5 minutes and then centrifuged for 10 minutes at 4000 rpm at 4° C. Following centrifugation, 100 μL of each clear supernatant was transferred to a 96 well plate and analyzed with a fit-for-purpose LC-MS/MS method, with authentic samples of each analyte used for calibration and identification.
(§1) Data Analysis. Pharmacokinetic parameters were estimated using the non-compartmental analysis tool of Phoenix® WinNonlin software (Ver 8.0).

Data set [2] deals with T1, norepinephrine transporter (NET) (Homo sapiens, UniProt P23975).
T1 construct: expressed in transfected cells; host or cells: HEK293
Nature of the data set: Fluorescent substrate uptake inhibition, NET. Particulars: 10 μM, HEK293 cells expressing NET. Type of data set: cell-based.

The nature of data set [3]: Oral bioavailability in rats, Method B. The class given is in vivo. The note with it: Sprague Dawley rats. The method, then: Animals. Male Sprague Dawley rats were used in these studies. Animals were randomly assigned to treatment groups and were fasted overnight before oral dosing.
Drugs. Test compounds were dissolved in a vehicle consisting of normal saline (compounds 14R, 88R, 29rac, and 27rac) or a mixture of 5% v/v N-methyl-2-pyrrolidone, 5% v/v Solutol HS-15, and 90% v/v normal saline (compounds 84R and 84S). They were then administered intravenously (iv) or orally (po) at a dose of 10 mg/kg (calculated based on freebase) and at a volume of 5 mL/kg body weight. Compounds were tested as the racemates (indicated by “rac” nomenclature) or pure enantiomers (indicated by “R” or “S” nomenclature).
Sample Collection and Bioanalysis. Blood samples (approximately 120 μL) were collected under light isoflurane anesthesia (Surgivet®) from the retro orbital plexus at 0.08, 0.25, 0.5, 1, 2, 4, 8, and 24 h (total 8 time points/rat, 4 rats per administration route per compound). Immediately after blood collection, plasma was harvested by centrifugation at 4000 rpm for 10 min at 4° C. and samples were stored at −70±10° C. until bioanalysis. For bioanalysis, 25 μL aliquots of plasma study samples or spiked plasma calibration standards were added to individual pre-labeled micro-centrifuge tubes followed by 100 μL of an internal standard solution (glipizide, 500 ng/mL in acetonitrile) except for blanks, where 100 μL of acetonitrile was added. Samples were vortexed for 5 minutes and then centrifuged for 10 minutes at 4000 rpm at 4° C. Following centrifugation, 100 μL of each clear supernatant was transferred to a 96 well plate and analyzed with a fit-for-purpose LC-MS/MS method, with authentic samples of each analyte used for calibration and identification. In the case of compounds 14R and 88R, their metabolite 11R was also quantified in plasma samples.
as §1

Where two headings read alike, the source gives them in different places.

T1 sequence (P23975 whole entry, species assumed): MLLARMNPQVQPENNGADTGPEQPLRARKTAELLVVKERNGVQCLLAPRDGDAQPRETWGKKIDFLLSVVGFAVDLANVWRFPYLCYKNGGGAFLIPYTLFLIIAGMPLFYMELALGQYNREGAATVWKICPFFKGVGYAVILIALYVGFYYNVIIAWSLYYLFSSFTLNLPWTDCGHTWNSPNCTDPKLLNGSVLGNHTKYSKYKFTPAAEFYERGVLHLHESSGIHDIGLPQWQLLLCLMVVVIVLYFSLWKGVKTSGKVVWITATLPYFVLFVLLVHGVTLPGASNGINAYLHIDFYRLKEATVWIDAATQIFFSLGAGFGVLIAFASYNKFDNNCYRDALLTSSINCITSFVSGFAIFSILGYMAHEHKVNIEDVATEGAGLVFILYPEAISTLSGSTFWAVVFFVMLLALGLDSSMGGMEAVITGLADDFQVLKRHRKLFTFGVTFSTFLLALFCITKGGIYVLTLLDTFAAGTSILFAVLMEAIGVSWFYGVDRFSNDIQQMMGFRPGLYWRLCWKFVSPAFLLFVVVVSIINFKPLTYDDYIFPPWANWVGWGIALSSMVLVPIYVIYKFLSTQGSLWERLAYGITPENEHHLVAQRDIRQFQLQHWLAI

What is called Cmax is the highest concentration seen after dosing. The term inhibition denotes the drop in the measured response relative to a control, in per cent. As for `[2H]C([2H])([2H])N[C@@]1(c2ccccc2)CCCCC1=O` [Compound 88R, (R)-2-((methyl-d3)amino)-2-phenylcyclohexan-1-one], the “AUC0-inf (iv)” value in data set [1] (brain, 10 mg/kg iv, Method B: values represent AUC0-last (footnote)) was 334,518 ng*min/g. The “AUC0-last (po)” value in data set [1] (brain, 10 mg/kg po, Method B: values represent AUC0-last (footnote)) is given as 143,445 ng*min/g. The F in data set [1] (calculated based on brain exposure (AUC0-last), Method B) is reported as 43%; in data set [1] (plasma, Method B: based on AUC0-last), 47%; in data set [3] (plasma, 10 mg/kg, Method B) it was 20%. Further, the half-life came to 36 min in data set [1] (brain, 10 mg/kg iv, Method B, read-out: t1/2 (iv)); 79.8 min in data set [1] (brain, 10 mg/kg po, Method B, read-out: t1/2 (po)); 34.2 min in data set [1] (plasma, 10 mg/kg iv, Method B, read-out: t1/2 (iv)); 82.8 min in data set [1] (plasma, 10 mg/kg po, Method B, read-out: t1/2 (po)); 59.4 min in data set [3] (male, rat, plasma, 10 mg/kg iv, Method B, read-out: t1/2 (iv)); 45.6 min in data set [3] (male, rat, plasma, 10 mg/kg po, Method B, read-out: t1/2 (po)). Moreover, the Cmax in data set [1] (brain, 10 mg/kg po, Method B) amounted to 3100 ng/g; in data set [1] (plasma, 10 mg/kg po, Method B), 621 ng/mL; in data set [3] (male, rat, plasma, 10 mg/kg po, Method B), 393 ng/mL. Moreover, the AUC(0-inf) in data set [1] (plasma, 10 mg/kg iv, Method B: values represent AUC0-last (footnote), read-out: AUC0-inf (iv) (converted)) is 1530 ng·h/mL; in data set [1] (plasma, 10 mg/kg po, Method B: values represent AUC0-last (footnote), read-out: AUC0-inf (po) (converted)), 718 ng·h/mL. In addition, the inhibition at 10 µM in data set [2] amounted to 10.6%. Besides, the “formation of the metabolite 11R compared to 14R after oral administration” value in data set [3] (10 mg/kg po) was “reduced”. Moreover, the AUC(0-t) in data set [3] (male, rat, plasma, 10 mg/kg iv, Method B, read-out: AUC0-last (iv) (converted)) is 1670 ng·h/mL; in data set [3] (male, rat, plasma, 10 mg/kg po, Method B, read-out: AUC0-last (po) (converted)), 335 ng·h/mL.

The values are drawn from patent US11344510B2, “Arylcyclohexylamine derivatives and their use in the treatment of psychiatric disorders” (Gilgamesh Pharmaceuticals, Inc., priority 2019, dated 2022).
